For the experiment, the target named is T1, BRD4 bromodomains (Homo sapiens, UniProt O60885).
T1 construct: fused on or other part: T7 phage capsid protein (fusion for phage display)
In words: BROMOscan bromodomain binding assay. Conditions: Kd classes; BRD4 bromodomains displayed on T7 phage, competition with acetylated peptide ligand, 11 concentrations 0 to 10 μM; read-out: BROMOscan Relative Activity. As for the experimental part: Bromodomain assays were conducted to measure interactions between certain compounds and bromodomains. In order to measure compounds' direct activity against BRD4, dissociation constants ([…]) of the bromodomain inhibitors of the present invention were obtained using a biophysical binding assay, BROMOscan℠ (DiscoveRx, San Diego, Calif.), a modified phage-display system originally developed for kinases (Nat Biotechnol. 2005 March; 23(3):329-36).
The assays were conducted according to BROMOscan protocol from Discover Rx. Briefly, BRD4 bromodomains expressed as a fusion capsid protein of T7 phage were bound to acetylated peptide ligand on a solid phase and competition bindings were performed. T7 phage strains displaying bromodomains were grown in parallel in 24-well blocks in an E. coli host derived from the BL21 strain. E. coli were grown to log-phase and infected with T7 phage from a frozen stock (multiplicity of infection=0.4) and incubated with shaking at 32° C. until lysis (90-150 minutes). The lysates were centrifuged (5,000×g) and filtered (0.2 μm) to remove cell debris. Streptavidin-coated magnetic beads were treated with biotinylated small molecule or acetylated peptide ligands for 30 minutes at room temperature to generate affinity resins for bromodomain assays. The liganded beads were blocked with excess biotin and washed with blocking buffer (SeaBlock (Pierce), 1% BSA, 0.05% Tween 20, 1 mM DTT) to remove unbound ligand and to reduce non-specific phage binding. Binding reactions were assembled by combining bromodomains, liganded affinity beads, and test compounds in 1× binding buffer (17% SeaBlock, 0.33×PBS, 0.04% Tween 20, 0.02% BSA, 0.004% Sodium azide, 7.4 mM DTT). Test compounds were prepared as 1000× stocks in 100% DMSO and subsequently diluted 1:10 in monoethylene glycol (MEG) to create stocks at 100× the screening concentration (resulting stock solution is 10% DMSO/90% MEG). The compounds were then diluted directly into the assays such that the final concentration of DMSO and MEG were 0.1% and 0.9%, respectively. All reactions were performed in polystyrene 96-well plates in a final volume of 0.135 ml. The assay plates were incubated at room temperature with shaking for 1 hour and the affinity beads were washed with wash buffer (1×PBS, 0.05% Tween 20). The beads were then re-suspended in elution buffer (1×PBS, 0.05% Tween 20, 2 μM non-biotinylated affinity ligand) and incubated at room temperature with shaking for 30 minutes. The bromodomain concentration in the eluates was measured by qPCR. Data was collected at 11 compound concentrations ranging from 0 to 10 μM. Kd values were then derived from a standard dose-response curve generated with Hill equation (Hill Slope was set to −1) and a non-linear least square fit with the Levenberg-Marquardt algorithm.
Response=Background+Signal−Background/1+(Kd Hill Slope/Dose Hill Slope)
Data is reported in Table 3 as Relative Activity, wherein a Kd of less than 100 nM is denoted by (+++), a Kd of between 100 nM and 1 μM is denoted by (++), and a Kd of 1 μM to greater than 10 μM is denoted by (+).

Consider 27 compounds from patent US20190092761A1, “Methods and Compositions for Inhibition of Bromodomain and Extratermial Proteins” (Convergene LLC, priority 2014, published 2019).

On to `Cc1noc(C)c1-c1ccc2[nH]c(=O)cc(NN3CCc4ccccc4C3)c2c1` [Example 1], for which the Kd was under 100 nM.
Consider `Cc1noc(C)c1-c1ccc2[nH]c(=O)cc(NN(C)c3ccccc3)c2c1` [Example 5, 6-(3,5-dimethylisoxazol-4-yl)-4-(2-methyl-2-phenylhydrazinyl)-quinolin-2(1H)-one], for which the Kd was under 100 nM.
Take `Cc1noc(C)c1-c1ccc2[nH]c(=O)cc(NN(CC(=O)O)c3ccccc3)c2c1` [Example 6]: the Kd is under 100 nM.
On to `CC(=O)N(Nc1cc(=O)[nH]c2ccc(-c3c(C)noc3C)cc12)c1ccccc1` [Example 7], for which the Kd is under 100 nM.
Regarding `Cc1noc(C)c1-c1cc2[nH]c(=O)c(C)c(NNc3ccccc3Cl)c2cc1-c1c(C)noc1C` [Example 60], the Kd was under 100 nM.
For `Cc1noc(C)c1-c1ccc2[nH]c(=O)cc(NCc3cccc(Cl)c3)c2c1` [Example 108], the Kd is under 100 nM.
Consider `Cc1noc(C)c1-c1ccc2[nH]c(=O)cc(NCc3cccc(Br)c3)c2c1` [Example 112], for which the Kd is under 100 nM.
Take `COc1cccc(CNc2cc(=O)[nH]c3ccc(-c4c(C)noc4C)cc23)c1` [Example 116]: the Kd was under 100 nM.
Regarding `Cc1noc(C)c1-c1ccc2[nH]c(=O)cc(NCc3cccc(C(F)(F)F)c3)c2c1` [Example 120], the Kd was 100 to 1000 nM.
With `Cc1noc(C)c1-c1ccc2[nH]c(=O)cc(NCc3cc(Cl)cc(Cl)c3)c2c1` [Example 124] the figure was 100 to 1000 nM; with `Cc1noc(C)c1-c1ccc2[nH]c(=O)cc(NCc3ccc(Cl)cc3Cl)c2c1` [Example 128], 100 to 1000 nM.
With `Cc1noc(C)c1-c1ccc2[nH]c(=O)cc(NCc3ccc(Cl)cc3)c2c1` [Example 132], the Kd was in the range of 100 to 1000 nM.
Turning to `Cc1noc(C)c1-c1ccc2[nH]c(=O)cc(NCc3ccc(-c4ccccc4)cc3)c2c1` [Example 140], the Kd was in the range of 100 to 1000 nM.
On to `Cc1noc(C)c1-c1ccc2[nH]c(=O)cc(NCC3CCCCC3)c2c1` [Example 144], for which the Kd is 100 to 1000 nM.
Consider `Cc1noc(C)c1-c1cc2c(NCc3ccccc3)cc(=O)[nH]c2cc1C(=O)N(C)C` [Example 160, 4-(benzylamino)-6-(3,5-dimethylisoxazol-4-yl)-N,N-dimethyl-2-oxo-1,2-dihydroquinoline-7-carboxamide], for which the Kd was under 100 nM.
Turning to `Cc1noc(C)c1-c1cc2c(NCc3ccccc3)cc(=O)[nH]c2cc1C(N)=O` [Example 161, 4-(benzylamino)-6-(3,5-dimethylisoxazol-4-yl)-2-oxo-1,2-dihydroquinoline-7-carboxamide], the Kd was under 100 nM.
Turning to `Cc1noc(C)c1-c1cc2[nH]c(=O)cc(NCc3ccccc3)c2cc1-c1c(C)noc1C` [Example 162, 4-(benzylamino)-6,7-bis(3,5-dimethylisoxazol-4-yl)quinolin-2(1H)-one], the Kd is under 100 nM.
Regarding `O=c1cc(NCc2cccc(Cl)c2)c2cc(-c3cccnc3)ccc2[nH]1` [Example 163, 4-(3-chlorobenzylamino)-6-(pyridin-3-yl)quinolin-2(1H)-one], the Kd was under 100 nM.
Take `COc1cncc(-c2ccc3[nH]c(=O)cc(NCc4cccc(Cl)c4)c3c2)c1` [Example 164, 4-(3-chlorobenzylamino)-6-(5-methoxypyridin-3-yl)quinolin-2(1H)-one]: the Kd is under 100 nM.
On to `COc1ncccc1-c1ccc2[nH]c(=O)cc(NCc3cccc(Cl)c3)c2c1` [Example 165, 4-(3-chlorobenzylamino)-6-(2-methoxypyridin-3-yl)quinolin-2(1H)-one], for which the Kd was over 1000 nM.
With `O=c1cc(NCc2cccc(Cl)c2)c2cc(-c3ccncc3)ccc2[nH]1` [Example 166], the Kd was under 100 nM.
For the compound `Cn1cc(-c2ccc3[nH]c(=O)cc(NCc4cccc(Cl)c4)c3c2)cn1` [Example 167, 4-(3-chlorobenzylamino)-6-(1-methyl-1H-pyrazol-4-yl)quinolin-2(1H)-one], the Kd is under 100 nM.
Consider `Cc1noc(C)c1-c1ccc2[nH]c(=O)cc(NCc3ccccc3)c2c1` [Example 170, 4-(benzylamino)-6-(3,5-dimethylisoxazol-4-yl)quinolin-2(1H)-one], for which the Kd was under 100 nM.
With `COc1ccccc1CNc1cc(=O)[nH]c2ccc(-c3c(C)noc3C)cc12` [Example 171] the figure was under 100 nM.
Turning to `Cc1noc(C)c1-c1ccc2[nH]c(=O)cc(NCc3ccccc3F)c2c1` [Example 172], the Kd is under 100 nM.
With `Cc1noc(C)c1-c1ccc2[nH]c(=O)cc(N[C@H](C)c3ccccc3)c2c1` [Example 173] the figure was under 100 nM; with `Cc1noc(C)c1-c1ccc2[nH]c(=O)cc(NCc3cccnc3)c2c1` [Example 175], 100 to 1000 nM.
